1 compound from US6897319B2, “Useful aroyl pyrrole heteroaryl methanones and methanols” (Ortho-McNeil Pharmaceutical, Inc., priority 2001, dated 2005) can be followed below.

Assay [1] relates to voltage-gated sodium channels. The experiment in a line: [14C]guanidinium flux assay in SK-N-SH cells (veratridine stimulus). As to conditions: 10 μM compound, 100 μM veratridine. In kind it is cell-based. On the procedure:
Screening Assay for Voltage-Gated Sodium Channel Antagonists [^14C] Guanidinium Flux Assay
(§1) SK-N-SH neuroblastoma cells were maintained in a propagation medium containing modified Eagle's medium and 10% (v/v) fetal bovine serum and were incubated at 37° C. in a 5% CO2 atmosphere. Only cells with fewer than 20 passages were used in each assay. All drugs were prepared in DMSO, and the final concentration of solvent was less than 0.1% (v/v). Veratridine, a toxin that selectively promotes persistent activation of voltage-gated sodium channels, served as the stimulus.
SK-N-SH cells were plated at 1×10^5 cells/well in 96-well Cytostar-T microscintillating plates in propagation medium and experiments were performed 6-7 days after plating. Prior to assay, the SK-N-SH cells were washed twice with assay buffer containing 50 mM HEPES (pH 7.45), 5.4 mM potassium chloride, 0.8 mM magnesium chloride, 130 mM choline chloride, 5.5 mM glucose and 0.1 mg/mL bovine serum albumin. Next, the plates were allowed to equilibrate for 10 min at 37° C. in assay buffer. After this incubation period, the cells were stimulated with 100 μM veratridine in the presence or absence of investigational compounds prepared in a 96-well plate (prepared at a final concentration of 10 μM in DMSO). The 96-well dosing plate was prepared by mixing 25 μL of a drug/assay buffer solution per well with 25 μL of 0.7 μCi/mL [^14C]guanidine hydrochloride in assay buffer. 50 μL aliquots from the dosing plate were then added to the cells. One sample containing 100 μM veratridine and 10 μM tetrodotoxin accounted for nonspecific activity. The plates were incubated for 1 hr at room temperature and the radioactivity was counted in a 1450 Microbeta scintillation counter.

Assay [2] concerns mechanical allodynia after L5 spinal nerve ligation. The experiment in a line: Chung Model (spinal nerve ligation) antiallodynic effect. Format: in vivo. As to conditions: po; rat, orally administered. The text has this: Procedure for Testing Antiallodynic Effect
The procedure used to detect the antiallodynic effect of a compound of the present invention for which there is a good correlation with human efficacy for the treatment of pain is the procedure for the measurement of allodynia found in the Chung Model (Kim S. H. and Chung J. M., An Experimental Model for Peripheral Neuropathy Produced by Segmental Spinal Nerve Ligation in the Rat, Pain, 1992, 50, 355-363). The antiallodynic effect of the composition of the present invention in the Chung Model is expressed in % MPE (Maximum Possible Effect).
Male Sprague-Dawley rats, weighing approximately 200 g each were anesthetized with isoflurane. The spinal nerve at the level of L5 was exposed through an incision just left of the dorsal midline and tightly ligated with 6-0 silk. At various times after surgery, animals were tested for mechanical allodynia with von Frey hairs (monofilaments which are calibrated to bend under a certain amount of pressure, ranging from 0.41 to 15.1 g). In order to calculate a paw withdrawal threshold (PWT), tactile allodynia was measured by recording the pressure at which the affected paw was withdrawn from graded stimuli according to the procedure of S. R. Chaplan, J. W. Pogrel, T. L. Yaksh, Role of Voltage-Dependent Calcium Channel Subtypes in Experimental Tactile Allodynia, J. Pharmacol. Exp. Ther., 1994, 269, 1117-1123. Normal rats can withstand at least 15 g of pressure without responding. Operated rats, however, can respond to as little as 0.25 g of pressure. The surgery was deemed successful if the animal responded with a PWT of less than 4 g of pressure applied to the affected paw. […] The PWT was used to calculate the % maximal possible effect (% MPE) according to the formula: %MPE=100×[(PWT−CT)/(CO−CT)]; wherein PWT is defined as Paw Withdrawal Threshold, CT is Control Threshold, and CO is Cut Off (defined as 15 g).
The sham operation consisted of a similar surgery; the spinal nerve was visualized without being ligated.
Compounds selected from Formula (I) and Formula (II) were tested for activity in treating or modulating neuropathic pain by being dissolved or suspended in either water or hydroxypropyl methylcellulose, respectively. Postoperative animals between 14 to 42 days were fasted overnight prior to dosing. Animals were orally dosed and dosage volumes were calculated on a 4 mL/kg basis.

Assay [3] relates to carrageenan-induced paw swelling. The experiment in a line: Carrageenan Paw Edema Model. Conditions: rat, 100 mg/kg p.o., 2 hours post carrageenan administration. In kind it is in vivo. The text has this:
Procedure for Testing Antiinflammatory Response
The procedure used to detect the antiinflammatory activity of a compound of the present invention for which there is a good correlation with human efficacy is the Carrageenan Paw Edema Model (as described in Levy, L., Carrageenan Paw Edema in the Mouse, Life Sci., 1969, 8, 11, 601-6).
Male, Sprague-Dawley rats (Charles River Laboratories) 175-200 g are housed in a climate-controlled, virus free environment for at least 5 days prior to testing.
Carrageenan is prepared in saline (0.5% carrageenan solution in 0.9% saline) and injected in a 0.1 mL volume into the footpad of the rat. Test compound is administered orally by gavage 30-60 minutes prior to footpad challenge. Paws are dipped into a mercury plethysmograph edema computer (Buxco Electronics) and the foot displacement is recorded at 0 time and at various times after challenge with carrageenan. Rats treated with test compound are compared to vehicle controls for any inhibition of carrageenan induced paw swelling.
The % Inhibition (% I) by a compound tested was calculated according to the formula: %I=100−[100×(TCPV/VCPV)]; wherein TCPV is defined as the mean Change in Paw Volume in the Treated group and VCPV is the mean Change in Paw Volume in the Vehicle group.

The test system of assay [4] is voltage-gated sodium channels. The assay can be described thus: Fluorometric membrane potential assay in SK-N-SH cells (veratridine stimulus, FLIPR). In kind it is cell-based. Conditions: 10 μM compound, 5 μM veratridine. On the procedure: Screening Assay for Voltage-Gated Sodium Channel Antagonists Fluorometric Membrane Potential Assay
as §1, with “stimulus. 24 hr prior to testing, 1×10^5 cells/well were plated into 96-well plates specifically designed for use in a fluorescent imaging plate reader (FLIPR) (Molecular Devices, Sunnyvale, Calif.)” for “stimulus.”
Prior to screening, monolayers of cells were loaded with 100 μL/well of a proprietary voltage-sensitive dye (Molecular Devices, Sunnyvale, Calif.) for 30 min at 37° C. After this incubation period, the cells were stimulated with 5 μM veratridine in the presence or absence of investigational compounds (prepared at a final concentration of 10 μM in DMSO). A sample containing 5 μM veratridine and 10 μM tetrodotoxin accounted for nonspecific activity. The fluorescence was monitored by the FLIPR (Molecular Devices) from 10 sec prior to drug addition (50 μL) to 170 sec after drug addition at 25° C. During sodium channel activation, the cells depolarize and the dye associates with cell membranes, resulting in increased fluorescence.

In the case of `Cn1cc(C(=O)c2ccncc2)cc1C(=O)c1ccc(Cl)cc1` [Cpd 1, [5-(4-Chlorobenzoyl)-1-methyl-1H-pyrrol-3-yl]pyridin-4-ylmethanone], the “% GFI at 10 μM (% guanidinium flux inhibition)” value in assay [1] was found to be 23%. The ED50 in assay [2] was 22 mg/kg. Also, the “% inhibition of carrageenan-induced paw swelling” value in assay [3] came to 35%. Moreover, the “% FI at 10 μM (% fluorescence inhibition)” value in assay [4] came to 32%.
